{
  "source": "patent US11111222B2",
  "about": "“Hydroxyeicosatrienoic acid compounds and their use as therapeutic agents” (THE REGENTS OF THE UNIVERSITY OF MICHIGAN, priority 2016, dated 2021)",
  "key": {"[1]": {"experiment": "Tail bleeding assay", "assay_type": "in vivo, mouse", "conditions": "mice retro-orbitally injected; 5 mm tail tip excised; vs control", "method": "Mice were anesthetized with ketamine/xyzaline and placed on a heating pad in prone position, the tip of the tail (5 mm) was excised with a sterile scalpel, and the tails were immediately immersed into isotonic saline solution (0.9%) warmed to 37° C. Bleeding time was assessed until cessation of blood flow from the tail for 1 minute."}, "[2]": {"test_system": "thrombus formation (platelet and fibrin) in cremaster arterioles", "experiment": "Laser-induced cremaster arteriole thrombosis model", "assay_type": "in vivo, mouse", "method": "Wild type (WT) or 12-LOX^−/− mice (12 weeks of age) were anesthetized by intraperitoneal injection of ketamine/xylazine (100 mg/kg) prior to the exposure of the cremaster muscle arterioles under a dissecting microscope with constant perfusion of preheated bicarbonate-buffered saline (Reheman et al., J Thromb Haemost 3:875-883, 2005; Reheman et al., Blood 113:1809-1817, 2009; Wang et al., J Clin Invest 124:4281-4293, 2014). Anti-platelet (DyLight 488 anti-GPIb, 1 μg/g) and anti-fibrin (Alexa Fluor 647, 0.3 μg/g) antibodies were administered via jugular vein catheter prior to intravital microscopy. DGLA (50 mg/kg) or DMSO (vehicle control) were dissolved in a formulation of 5% DMSO and 45% PEG300 in sterile 1×PBS and then intravenously injected into mice 10 minutes prior to induction of thrombosis. 12(S)-HETrE (6 mg/kg) or equal volume of DMSO (vehicle control) was also intravenously injected into mice 10 minutes prior to induction of thrombosis. Multiple independent thrombi were induced in the arterioles (30-50 μm diameter) in each mouse by a laser ablation system (Ablate! photoablation system; Intelligent Imaging Innovations, Denver, Colo., USA). Images of thrombus formation were acquired in real-time under 63× water-immersion objective with a Zeiss Axio Examiner Z1 fluorescent microscope equipped with solid laser launch system (LaserStack; Intelligent Imaging Innovations) and high-speed sCMOS camera. All captured images were analyzed on Slidebook (Intelligent Imaging Innovations Inc., Denver, Colo., USA)."}, "[3]": {"test_system": "VASP (serine 157)", "experiment": "VASP phosphorylation in human platelets", "assay_type": "cell-based", "conditions": "25 μM, 1 min; vs DMSO"}, "[4]": {"test_system": "Gαs", "experiment": "[35S]GTPγS binding to immunoprecipitated Gαs, platelet membranes", "assay_type": "biochemical", "conditions": "25 μM; human platelet membranes; vs DMSO", "method": "PRP was isolated from whole blood as described above and then incubated with 1 mM aspirin for 1 hour at 37° C. Platelets were pelleted at 2000 g for 10 min in the presence of 10×ACD and apyrase. The pelleted platelets were washed with Tyrode's and centrifuged at 2000×g with 10×ACD for 10 min at room temperature. The platelets were flash frozen with liquid nitrogen and then resuspended in cold detergent-free TME buffer (50 mM Tris-HCl, pH 7.5, 20 mM MgCl2, 2 mM EDTA, and 100 mM NaCl) with 1 μM GDP and protease and phosphatase inhibitors to lyse the platelets. The lysed platelets were centrifuged at 1500 g at 4° C. for 5 min. The supernatant was collected and centrifuged at 100,000×g for 30 min at 4° C. The pelleted membranes were resuspended in TME buffer with 1 μM GDP and stored at −80° C. prior to use. Fatty acid metabolites, agonists, or DMSO and [^35S]GTPγS (10 nM) were added to platelet membranes (60 μg/reaction) on ice, and the tubes were immediately transferred to a 30° C. water bath shaker for 20 min. The reaction was terminated by the addition of ice-cold IP buffer (50 mM Tris-HCl, pH 7.5, 20 mM MgCl2, 150 mM NaCl, 0.5% Nonidet P-40, 0.33% aprotinin, 0.1 mM GDP, and 0.1 mM GTP). The samples were pre-cleared with Protein A agarose beads and normal rabbit IgG for 30 min on a nutator at 4° C. and then aliquoted equally into two tubes containing either normal rabbit IgG or a Gs antibody that had been conjugated to Protein A agarose beads. The samples were incubated on a nutator for 1 hr at 4° C. and washed 4 times with IP buffer and 1 time in TME buffer. The samples were boiled in 0.5% SDS for 30 sec, and the supernatants were collected following brief centrifugation. The supernatants were analyzed in 8 mL of scintillation fluid. The background counts for the normal rabbit IgG (50-200 cpm) for each sample were subtracted from the anti-Gs immunoprecipitated samples prior to analyzing the data."}, "[5]": {"conditions": "WT mice, 6 mg/kg i.v. 10 min before laser injury, vs vehicle"}},
  "data": [
    {"smiles": "CCCCC/C=C\\C[C@H](O)/C=C/C=C\\CCCCCCC(=O)O", "note": "[12(S)-HETrE, 12(S)-hydroxy-8Z,10E,14Z-eicosatrienoic acid]", "values": [
      {"measurement": "tail bleeding time", "setting": "[1]", "result": "no significant difference in tail bleeding time"},
      {"measurement": "platelet accumulation", "setting": "[2]; 12-LOX−/− mice, 6 mg/kg i.v., vs 12-LOX−/− alone", "result": "significant inhibition of platelet accumulation"},
      {"measurement": "fibrin accumulation", "setting": "[2]; 12-LOX−/− mice, 6 mg/kg i.v., vs vehicle", "result": "no difference in fibrin accumulation"},
      {"measurement": "thrombus size and stability by fibrin accumulation", "setting": "[2]; [5]", "result": "significantly smaller and less stable thrombi"},
      {"measurement": "thrombus size and stability by platelet accumulation", "setting": "[2]; [5]", "result": "significantly smaller and less stable thrombi"},
      {"measurement": "VASP phosphorylation (S157)", "setting": "[3]", "result": "enhanced VASP phosphorylation"},
      {"measurement": "[35S]GTPγS binding to immunoprecipitated Gαs", "setting": "[4]", "result": "significant increase in [^35S]GTPγS binding"}
    ]}
  ]
}
